From patent publication US11744824B2, “2-amino-3-carbonyl imidazopyridine and pyrazolopyridine compounds” (1ST Biotherapeutics, Inc., priority 2020, dated 2023)

Legend:
[1] = biological target: GST-tagged recombinant human RIP2 (Homo sapiens (Human), UniProt O43353); experiment: RIP2 Kinase Assay (ADP-Glo); type: biochemical; settings: in vitro kinase activity, ATP 25 μM
Experimental: GST-tagged recombinant human RIP2 (25 ng) is incubated with 5 μL of compounds (0.5% DMSO), 5 μL of MBP (0.5 μg/μl) and 5 μL of ATP (25 μM) in buffer (40 mM Tris, 7.5; 20 mM MgCl2; 0.1 mg/ml BSA; 50 μM DTT). The assay was started by incubating the reaction mixture in a 96-well plate at 30° C. for 60 minutes. After the incubation, 25 μL ADP-Glo reagent was added, and the reaction was incubated at 30° C. for 40 minutes to stop the reaction and degrade residual ATP. The ADP product was then converted to ATP by adding 50 μL per well of detection reagent. Luminescence was detected after 30 minutes room temperature incubation with the Molecular device I3X plate reader. The IC50 values were calculated from a series of percent inhibition values determined at a range of inhibitor concentration using software routines as implemented in the GraphPad Prism 7 software and SigmaPlot 13.0.

[2] = test system: IL-6 secretion in BV-2 mouse microglia cells; experiment: IL-6 Secretion in BV-2 Cell (L18-MDP stimulated, ELISA); type: cell-based; settings: BV-2 cells, 10 μg/ml L18-MDP, 24 hr
Experimental: IL-6 Secretion in BV-2 Cell
BV-2 mouse microglia cells were kindly provided from Dr. Bae in Korea Institute of Science and Technology (KIST). BV-2 cells were thawed and suspended in Dulbecco's modified eagle medium (DMEM) supplemented with 10% fetal bovine serum (FBS) and 1% Penicillin/Streptomycin. Cells were seeded into 96 well plates at 2×10^4 cells/well and allowed to attach for 24 hr. On the day of the experiment, various concentration of FB compounds was treated, and cells were stimulated with 10 μg/ml L18-MDP. After 24 hr incubation, supernatant was collected for cytokine assay.
Absorbance at 450 nm was measured using SpectraMax i3X microplate reader (Molecular Device). Values of media-only wells were subtracted and % inhibition for each compound concentration relative to the DMSO/L18-MDP-treated controls (100%) was calculated. The IC50 values were calculated from a series of percent activity values using software as implemented in the GraphPad Prism 7 software and SigmaPlot 13.0.

Sequence of GST-tagged recombinant human RIP2 (O43353 whole entry): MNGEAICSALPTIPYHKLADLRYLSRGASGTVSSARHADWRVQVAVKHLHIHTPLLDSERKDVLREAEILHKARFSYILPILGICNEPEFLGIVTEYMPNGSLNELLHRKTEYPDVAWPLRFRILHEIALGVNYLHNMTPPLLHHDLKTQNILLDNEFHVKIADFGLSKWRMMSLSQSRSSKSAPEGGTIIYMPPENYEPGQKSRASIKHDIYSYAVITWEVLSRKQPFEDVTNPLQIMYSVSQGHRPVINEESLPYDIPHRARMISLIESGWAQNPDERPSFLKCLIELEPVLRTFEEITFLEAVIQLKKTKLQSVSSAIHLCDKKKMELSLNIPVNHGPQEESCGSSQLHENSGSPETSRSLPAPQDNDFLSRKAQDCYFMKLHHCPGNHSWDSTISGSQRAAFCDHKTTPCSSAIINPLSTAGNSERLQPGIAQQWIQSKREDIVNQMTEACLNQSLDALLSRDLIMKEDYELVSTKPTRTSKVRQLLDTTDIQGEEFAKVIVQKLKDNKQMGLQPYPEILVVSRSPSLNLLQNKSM

Structure (SMILES)	IC50 [1] [nM]	IC50 [2] [nM]
Cc1ccc2[nH]ncc2c1-c1ccc2nc(N)c(C(=O)C3CC3)n2c1 [Example 3]	1 to 100	> 1000
Nc1nc2ccc(-c3cccc(F)c3Cl)cn2c1C(=O)[C@@H]1C[C@@H]1F [Example 44]	1 to 100	501 to 1000
Nc1nc2ccc(-c3cnc4[nH]ccc4c3)cn2c1C(=O)C1CCNC1 (centres unmarked) [Example 91]	101 to 500	–
Cc1c(F)cccc1-c1ccc2nc(NCCN)c(C(=O)[C@@H]3C[C@@H]3F)n2c1 [Example 93]	> 1000	–
Nc1nc2c(F)cc(-c3cccc4[nH]ccc34)cn2c1C(=O)[C@@H]1C[C@@H]1F [Example 96]	101 to 500	–
CC(C)(C)OC(=O)n1cc(-c2ccc3nc(N)c(C(=O)[C@@H]4C[C@@H]4F)n3c2)c2ccccc21 [Example 98]	> 1000	–
Nc1nc2ccc(-c3ccc4[nH]cnc4c3)cn2c1C(=O)[C@@H]1C[C@@H]1F [Example 102]	1 to 100	–
Cc1c(-c2ccc3nc(N)c(C(=O)[C@@H]4C[C@@H]4F)n3c2)ccc2[nH]cnc12 [Example 103]	101 to 500	–
Cc1c(F)cccc1-c1ccc2nc(N)c(C(=O)N(C)C3CC3)n2c1 [Example 107, 2-amino-N-cyclopropyl-6-(3-fluoro-2-methylphenyl)-N-methylimidazo[1,2-a]pyridine-3-carboxamide]	> 1000	–
Cc1c(F)cccc1-c1ccc2nc(N)c(C(=O)N[C@@H]3C[C@@H]3F)n2c1 [Example 108]	101 to 500	–
CC(=O)NNC(=O)c1c(N)nc2ccc(-c3cccc(F)c3C)cn12 [Example 112, N′-acetyl-2-amino-6-(3-fluoro-2-methylphenyl)imidazo[1,2-a]pyridine-3-carbohydrazide]	> 1000	–
Nc1nc2ccc(-c3cnc4ccccc4c3)cn2c1C(=O)[C@@H]1C[C@@H]1F [Example 116]	101 to 500	–
Nc1nc2ccc(-c3cncc4ccccc34)cn2c1C(=O)[C@@H]1C[C@@H]1F [Example 117]	1 to 100	–
Cc1ccccc1-c1ccc2nc(N)c(C(=O)[C@@H]3C[C@@H]3F)n2c1 [Example 118]	1 to 100	–
Nc1nc2ccc(-c3ccccc3OCCF)cn2c1C(=O)[C@@H]1C[C@@H]1F [Example 119]	101 to 500	–
Nc1nc2ccc(-c3cccc(F)c3OCCF)cn2c1C(=O)[C@@H]1C[C@@H]1F [Example 120]	101 to 500	–
CC(C)(C)OC(=O)n1cccc1-c1ccc2nc(N)c(C(=O)[C@@H]3C[C@@H]3F)n2c1 [Example 121]	> 1000	–
Nc1nc2ccc(-c3ccc[nH]3)cn2c1C(=O)[C@@H]1C[C@@H]1F [Example 124]	> 1000	–
Nc1nc2ccc(-c3cc[nH]c3)cn2c1C(=O)[C@@H]1C[C@@H]1F [Example 125]	> 1000	–
Nc1nc2ccc(-c3cccc(F)c3CCO)cn2c1C(=O)[C@@H]1C[C@@H]1F [Example 126]	> 1000	–

Structure (SMILES)	IC50 [1] [nM]	IC50 [2] [nM]
Nc1nc2ccc(-c3ccccc3CCCO)cn2c1C(=O)[C@@H]1C[C@@H]1F [Example 129]	101 to 500	–
Nc1nc2ccc(-c3ccccc3CCCF)cn2c1C(=O)[C@@H]1C[C@@H]1F [Example 132]	101 to 500	–
Cc1cc(-c2ccc3nc(N)c(C(=O)[C@@H]4C[C@@H]4F)n3c2)c(F)cc1N [Example 134]	1 to 100	–
COC(=O)c1c(N)nc2ccc(-c3cccc(F)c3C)cn12 [Example 135, methyl 2-amino-6-(3-fluoro-2-methylphenyl)imidazo[1,2-a]pyridine-3-carboxylate]	101 to 500	–
Nc1nc2ccc(-c3cccc(F)c3CCF)cn2c1C(=O)[C@@H]1C[C@@H]1F [Example 136]	> 1000	–
CC(C)(C)OC(=O)NCc1ccccc1-c1ccc2nc(N)c(C(=O)[C@@H]3C[C@@H]3F)n2c1 [Example 137]	> 1000	–
Nc1nc2ccc(-c3ccccc3CCF)cn2c1C(=O)[C@@H]1C[C@H]1F [Example 139]	> 1000	–
Nc1nc2ccc(-c3ccccc3CCF)cn2c1C(=O)[C@H]1C[C@@H]1F [Example 140]	> 1000	–
Cc1ccc(N)cc1-c1ccc2nc(N)c(C(=O)[C@@H]3C[C@@H]3F)n2c1 [Example 142]	1 to 100	–
Cc1cccc(N)c1-c1ccc2nc(N)c(C(=O)[C@@H]3C[C@@H]3F)n2c1 [Example 143]	> 1000	–
CO/C=C/c1c(F)cccc1-c1ccc2nc(N)c(C(=O)[C@@H]3C[C@@H]3F)n2c1 [Example 144]	101 to 500	–
CNc1cc(F)cc(-c2ccc3nc(N)c(C(=O)[C@@H]4C[C@@H]4F)n3c2)c1C [Example 146]	101 to 500	–
CN(C)c1c(F)c(Cl)c(-c2ccc3nc(N)c(C(=O)NC4CC4)n3c2)c2cn[nH]c12 [Example 149]	> 1000	–
CSc1c(F)c(Cl)c(-c2ccc3nc(N)c(C(=O)O[C@@H]4COC[C@H]4C)n3c2)c2cn[nH]c12 [Example 151, (3S,4R)-4-methyltetrahydrofuran-3-yl 2-amino-6-(5-chloro-6-fluoro-7-(methylthio)-1H-indazol-4-yl)imidazo[1,2-a]pyridine-3-carboxylate]	> 1000	–
Nc1nc2ccc(-c3ccc4[nH]ccc4c3)cn2c1C(=O)[C@H]1C[C@H]1F [Example 156]	1 to 100	–
Nc1nc2ccc(-c3ccc4[nH]ccc4c3)cn2c1C(=O)[C@H]1C[C@@H]1F [Example 157]	1 to 100	–
Cc1c(-c2ccc3nc(N)c(C(=O)[C@H]4C[C@H]4F)n3c2)ccc2[nH]ccc12 [Example 159]	1 to 100	–
Cc1c(F)cccc1Oc1ccc2nc(N)c(C(=O)[C@@H]3C[C@@H]3F)n2c1 [Example 160]	101 to 500	–
Cc1c(-c2ccc3nc(N)c(C(=O)[C@H]4C[C@@H]4F)n3c2)ccc2[nH]ccc12 [Example 161]	1 to 100	–

Continued, values first:

IC50 [1] [nM]	IC50 [2] [nM]	Structure (SMILES)
1 to 100	101 to 500	Nc1nc2ccc(-c3cnc4[nH]ccc4c3)cn2c1C(=O)[C@@H]1C[C@@H]1F [Example 32]
1 to 100	101 to 500	Nc1nc2ccc(-c3cnc4[nH]ccc4c3Cl)cn2c1C(=O)[C@@H]1C[C@@H]1F [Example 41]
101 to 500	–	Nc1nc2c(F)cc(-c3ccc4[nH]ccc4c3)cn2c1C(=O)[C@@H]1C[C@@H]1F [Example 92]
1 to 100	–	Cc1c(-c2cc(F)c3nc(N)c(C(=O)[C@@H]4C[C@@H]4F)n3c2)cnc2[nH]ccc12 [Example 97]
101 to 500	–	Cc1c(F)cccc1-c1cc(F)c2nc(N)c(C(=O)[C@@H]3C[C@@H]3F)n2c1 [Example 99, (2-amino-8-fluoro-6-(3-fluoro-2-methylphenyl)imidazo[1,2-a]pyridin-3-yl)((1S,2S)-2-fluorocyclopropyl)methanone]
101 to 500	–	Cc1c(-c2ccc3nc(N)c(C(=O)[C@@H]4C[C@@H]4F)n3c2)cnc2c1ccn2C [Example 106]
101 to 500	–	Cc1c(F)cccc1-c1ccc2nc(N)c(C(=O)NC3CC3)n2c1 [Example 109]
101 to 500	–	Nc1nc2ccc(-c3c[nH]c4ccc(Cl)cc34)cn2c1C(=O)[C@@H]1C[C@@H]1F [Example 111]
> 1000	–	CC(C)(C)OC(=O)n1ccc(-c2ccc3nc(N)c(C(=O)[C@@H]4C[C@@H]4F)n3c2)c1 [Example 122]
101 to 500	–	Nc1nc2ccc(-c3cccc(F)c3CCCO)cn2c1C(=O)[C@@H]1C[C@@H]1F [Example 123]
> 1000	–	Nc1nc2ccc(-c3cccc(F)c3CO)cn2c1C(=O)[C@@H]1C[C@@H]1F [Example 127]
101 to 500	–	Nc1nc2ccc(-c3ccccc3CCO)cn2c1C(=O)[C@@H]1C[C@@H]1F [Example 128]
101 to 500	–	Nc1nc2ccc(-c3ccccc3CCF)cn2c1C(=O)[C@@H]1C[C@@H]1F [Example 130]
101 to 500	–	Nc1nc2ccc(-c3cccc(F)c3CCCF)cn2c1C(=O)[C@@H]1C[C@@H]1F [Example 131]
1 to 100	–	Cc1c(N)cc(F)cc1-c1ccc2nc(N)c(C(=O)[C@@H]3C[C@@H]3F)n2c1 [Example 133]
> 1000	–	NCc1ccccc1-c1ccc2nc(N)c(C(=O)[C@@H]3C[C@@H]3F)n2c1 [Example 138]
1 to 100	–	C=Cc1c(F)cccc1-c1ccc2nc(N)c(C(=O)[C@@H]3C[C@@H]3F)n2c1 [Example 145]
101 to 500	–	Cc1c(-c2ccc3nc(N)c(C(=O)[C@@H]4C[C@@H]4F)n3c2)cc(F)cc1N(C)C [Example 147]
101 to 500	–	Cc1c(F)cccc1Nc1ccc2nc(N)c(C(=O)[C@@H]3C[C@@H]3F)n2c1 [Example 148, (2-amino-6-((3-fluoro-2-methylphenyl)amino)imidazo[1,2-a]pyridin-3-yl)((1S,2S)-2-fluorocyclopropyl)methanone]
1 to 100	–	Cc1c(F)cc(N)cc1-c1ccc2nc(N)c(C(=O)[C@@H]3C[C@@H]3F)n2c1 [Example 155]
1 to 100	–	Nc1nc2ccc(-c3ccc4[nH]ccc4c3)cn2c1C(=O)[C@@H]1C[C@H]1F [Example 158]
1 to 100	–	Cc1c(-c2ccc3nc(N)c(C(=O)[C@@H]4C[C@H]4F)n3c2)ccc2[nH]ccc12 [Example 162]
